In the supplement of paper PMC13380429:
± gives the standard deviation of the averaged measurements.

Experiments:
Details in all cases: 72 h
HepG2 [1] = assay: cell viability relative to DMSO; higher = less toxic
Vero E6 [2] = assay: as above
Caco-2 [3] = assay: as above
U2OS [4] = assay: as above
Calu-3 [5] = assay: as above
HepG2 [6] = assay: relative viability EC50 (midpoint between 100% and the lowest measured viability); higher = less toxic
Vero E6 [7] = assay: as above
Caco-2 [8] = assay: as above
U2OS [9] = assay: as above
Calu-3 [10] = assay: as above
HepG2 [11] = assay: drug sensitivity score (DSS) for viability; higher = more toxic; extreme values may be limits of the assay
Vero E6 [12] = assay: as above
Caco-2 [13] = assay: as above
U2OS [14] = assay: as above
Calu-3 [15] = assay: as above

SMILES	cell viability (HepG2 [1]; 1 nM)	cell viability (HepG2 [1]; 10 nM)	cell viability (HepG2 [1]; 100 nM)	cell viability (HepG2 [1]; 1000 nM)	cell viability (HepG2 [1]; 10000 nM)	cell viability (Vero E6 [2]; 1 nM)	cell viability (Vero E6 [2]; 10 nM)	cell viability (Vero E6 [2]; 100 nM)	cell viability (Vero E6 [2]; 1000 nM)	cell viability (Vero E6 [2]; 10000 nM)	cell viability (Caco-2 [3]; 1 nM)	cell viability (Caco-2 [3]; 10 nM)	cell viability (Caco-2 [3]; 100 nM)	cell viability (Caco-2 [3]; 1000 nM)	cell viability (Caco-2 [3]; 10000 nM)	cell viability (U2OS [4]; 1 nM)	cell viability (U2OS [4]; 10 nM)	cell viability (U2OS [4]; 100 nM)	cell viability (U2OS [4]; 1000 nM)	cell viability (U2OS [4]; 10000 nM)	cell viability (Calu-3 [5]; 1 nM)	cell viability (Calu-3 [5]; 10 nM)	cell viability (Calu-3 [5]; 100 nM)	cell viability (Calu-3 [5]; 1000 nM)	cell viability (Calu-3 [5]; 10000 nM)	relative viability EC50 (HepG2 [6])	relative viability EC50 (Vero E6 [7])	relative viability EC50 (Caco-2 [8])	relative viability EC50 (U2OS [9])	relative viability EC50 (Calu-3 [10])	drug sensitivity score (HepG2 [11])	drug sensitivity score (Vero E6 [12])	drug sensitivity score (Caco-2 [13])	drug sensitivity score (U2OS [14])	drug sensitivity score (Calu-3 [15])
CCC(C)CCCC(=O)N[C@@H](CCN)C(=O)N[C@H](C(=O)N[C@@H](CCN)C(=O)N[C@H]1CCNC(=O)[C@H]([C@@H](C)O)NC(=O)[C@H](CCN)NC(=O)[C@H](CCN)NC(=O)[C@H](CC(C)C)NC(=O)[C@@H](CC(C)C)NC(=O)[C@H](CCN)NC1=O)[C@@H](C)O (stereo not given in full) [colistin]	94 ± 1.7%	105 ± 2%	99.3 ± 11%	103 ± 2%	97.5 ± 8.1%	101 ± 2.5%	101 ± 2.5%	104 ± 2.5%	98.5 ± 1.2%	103 ± 1.6%	94.7 ± 6.2%	98.4 ± 1.8%	101 ± 7.6%	104 ± 1.4%	101 ± 10%	99.7 ± 1.4%	100 ± 2%	97.8 ± 0.14%	102.75 ± 0.071%	99.2 ± 1.1%	100 ± 4%	93.4 ± 4.2%	94.3 ± 4.8%	98 ± 15%	85.4 ± 7.2%	> 10 µM	> 10 µM	> 10 µM	> 10 µM	> 10 µM	0	0	0	0	0.95 ± 1.3
O=C(O)c1ccc(OCCn2ccnc2)cc1 [dazoxiben]	104%	103%	84.5%	102%	89.8%	96.3%	101%	96.9%	103%	110%	108%	92.7%	114%	98.2%	101%	99.8%	96.5%	103%	91.4%	103%	101%	97.7%	103%	102%	97.7%	> 10 µM	> 10 µM	> 10 µM	> 10 µM	> 10 µM	0	0	0	0	0
COc1ccc2c(c1)[C@]13CCCC[C@@H]1[C@H](C2)N(C)CC3 [dextromethorphan]	111%	108%	95.8%	103%	109%	92.1%	100%	97.3%	95.9%	104%	98.1%	98.9%	104%	97.7%	97.7%	97.1%	98.3%	99.7%	95.3%	97.1%	95.6%	106%	89.6%	99.3%	102%	> 10 µM	> 10 µM	> 10 µM	> 10 µM	> 10 µM	0	0	0	0	0
N#Cc1ccc(N2CCN(C(=O)COc3ccc4[nH]cc(CCN)c4c3)CC2)cc1 [donitriptan]	102%	105%	94.1%	102%	94.8%	95.1%	101%	98%	98.5%	107%	92.4%	88.7%	89%	97.1%	104%	101%	102%	99.4%	99.7%	107%	89%	103%	107%	106%	111%	> 10 µM	> 10 µM	> 10 µM	> 10 µM	> 10 µM	0	0	0	0	0
CCN[C@H]1C[C@H](C)S(=O)(=O)c2sc(S(N)(=O)=O)cc21 [dorzolamide]	113%	93.7%	104%	94.9%	99.4%	98.5%	101%	92.6%	98.1%	91.1%	101%	108%	84%	94.7%	100%	95.2%	100%	93.6%	101%	97.4%	100%	100%	95.7%	88.3%	98.4%	> 10 µM	> 10 µM	> 10 µM	> 10 µM	> 10 µM	0	0	0	0	0
CCN(CC)C(=O)/C(C#N)=C/c1cc(O)c(O)c([N+](=O)[O-])c1 [entacapone]	98.3%	84.1%	102%	92.2%	100%	100%	99.2%	93.2%	96%	100%	93.7%	98.4%	95.5%	96%	93.2%	96.8%	102%	98%	98.9%	99.7%	92.3%	86.9%	94.7%	98.5%	101%	> 10 µM	> 10 µM	> 10 µM	> 10 µM	> 10 µM	0	0	0	0	0
O=C(O[C@@H]1Cc2c(O)cc(O)cc2O[C@@H]1c1cc(O)c(O)c(O)c1)c1cc(O)c(O)c(O)c1 [epigallocatechin-gallate-(-)]	101%	107%	93.1%	97.8%	97.5%	98.5%	100%	103%	98.2%	95.4%	103%	99.1%	97.7%	99.7%	101%	100%	98.2%	103%	97%	97.3%	103%	90.5%	103%	96.8%	97.1%	> 10 µM	> 10 µM	> 10 µM	> 10 µM	> 10 µM	0	0	0	0	0
O=c1ccc2cc(O[C@@H]3O[C@H](CO)[C@@H](O)[C@H](O)[C@H]3O)c(O)cc2o1 [esculin]	104%	97.3%	97.4%	101%	96%	105%	98.8%	102%	95.4%	104%	93%	105%	91.7%	102%	99.6%	100%	99.4%	96.8%	103%	98.2%	95.4%	101%	91%	96%	107%	> 10 µM	> 10 µM	> 10 µM	> 10 µM	> 10 µM	0	0	0	0	0
CCc1cccc2c3c([nH]c12)C(CC)(CC(=O)O)OCC3 (stereo not given) [etodolac]	105%	107%	96.3%	94.4%	99.1%	91.7%	98.8%	93.7%	105%	95.2%	86.2%	99.4%	82.7%	86.9%	87.9%	95.7%	103%	96.2%	104%	93.4%	98%	107%	98.7%	91.9%	106%	> 10 µM	> 10 µM	> 10 µM	> 10 µM	> 10 µM	0	0	0	0	0
O=C(OCCOCCO)c1ccccc1Nc1cccc(C(F)(F)F)c1 [etofenamate]	96.2%	105%	92.4%	101%	104%	100%	103%	103%	89.3%	81.7%	98.1%	91%	92.4%	90.8%	96.1%	102%	95.2%	98.7%	100%	96.3%	108%	95.6%	95.8%	82.5%	96.3%	> 10 µM	> 10 µM	> 10 µM	> 10 µM	> 10 µM	0	1.5	0	0	0.1
Cc1oc(=O)oc1COC(=O)C1=C([C@H]2CCCO2)S[C@@H]2[C@@H]([C@@H](C)O)C(=O)N12 [faropenem-medoxomil]	103%	99.2%	98.1%	95.1%	100%	94.7%	94.1%	97.6%	92.4%	97.9%	95.6%	93.4%	96.8%	93.2%	97.9%	98.8%	96.3%	98.3%	98.2%	99.9%	99.3%	94.7%	102%	93%	98.8%	> 10 µM	> 10 µM	> 10 µM	> 10 µM	> 10 µM	0	0	0	0	0
CC(C)(Oc1ccc(C(=O)c2ccc(Cl)cc2)cc1)C(=O)O [fenofibric-acid]	91.3%	96.6%	90.9%	94.9%	90.8%	102%	102%	101%	95.4%	97%	92.4%	106%	91.9%	96.2%	105%	103%	100%	97.5%	100%	95.5%	90.5%	94.5%	101%	102%	98.9%	> 10 µM	> 10 µM	> 10 µM	> 10 µM	> 10 µM	0	0	0	0	0
Nc1nc(F)nc2c1ncn2[C@@H]1O[C@H](COP(=O)(O)O)[C@@H](O)[C@@H]1O [fludarabine-phosphate]	90.9%	85.3%	94.7%	98.5%	77.7%	104%	105%	101%	101%	97.6%	94.5%	106%	98.6%	96.9%	101%	103%	105%	97.4%	99.7%	104%	97.1%	86.8%	98.3%	92.9%	89.2%	> 10 µM	> 10 µM	> 10 µM	> 10 µM	> 10 µM	0	0	0	0	0
CC/C(=C(/CC)c1ccc(OP(=O)(O)O)cc1)c1ccc(OP(=O)(O)O)cc1 [fosfestrol]	102%	97.6%	105%	97.1%	107%	94.2%	92.8%	92.4%	94.8%	108%	84.6%	93.5%	97.2%	94.5%	104%	93.4%	105%	102%	102%	105%	87%	84.9%	92.5%	108%	117%	> 10 µM	> 10 µM	> 10 µM	> 10 µM	> 10 µM	0	0	0	0	0
